# Data: patent US5756423A, “Method of controlling plants by inhibition of farnesyl pyrophosphate synthase” (Zeneca Limited, priority 1997, dated 1998)
# Read-outs that look alike come from different tables or passages of the source.
# How the values were obtained:
# [1] = tested on: barnyard grass (Enchinochloa crusgalli) (ECHCG); assay: post-emergent herbicidal test, barnyard grass; format: in vivo; settings: Echinochloa crus-galli, post-emergence, post-emergent, 17-21 days after application, read-out: ECHCG percent control; for pest or weed control at 4000 g/ha: 4.0 kg/ha; for pest or weed control at 1000 g/ha: 1.0 kg/ha (*)
# Source text: (§1) Seeds of several different weed species were planted in sandy loam soil containing only trace organic matter. Propagules were sown in individuals rows using one species per row across the width of an aluminum flat (19.5×9.5×6 cm). The grass weeds planted were green foxtail (Setaria viridis) ("SETVI"), wild oat (Avena fatua) ("AVEFA"), barnyard grass (Enchinochloa crusgalli) ("ECHCG"). Broadleaf weeds utilized were wild mustard (Brassica kaber), also known as Sinapis arvensis, ("SINAR"), velvetleaf (Abutilon theophrasti) ("ABUTH") and morningglory (Ipomoea spp.) ("IPOSS"). Additionally, yellow nutsedge (Cyperus esculentus) ("CYPES"), nutlets were sown. Seeding depths ranged from 1.0 to 1.5 cm and plant densities ranged from 3 to 25 plants per row depending on individual plant species.
# (§2) The flats were placed into a greenhouse and watered overhead by sprinkling. The greenhouse environmental systems provided the plants with natural and artificial (via metal halide lamps) lighting to attain 14 hours of light per day. Day and night temperatures were maintained at 29° and 21° C. respectively. The plants were grown for 10 to 12 days (or to the appropriate growth stage) prior to compound application. Grasses were sprayed at a 3 to 4 leaf stage and broadleaves at a 1 to 2 leaf stage. Yellow nutsedge was 5 to 7 cm tall at application.
# (§3) Solutions of the test compounds were prepared by weighing out 18.8 and 74.7 mg for 1 and 4 kg/ha applications respectively, of the test compound into a 60 ml wide-mouth bottle, then dissolving the compound in 14.0 ml of deionized water containing 0.5% v/v Tween 20' (polyoxyethylene sorbitan monolaurate emulsifier) as a surfactant. Additional solvents, not exceeding 2 ml (15% of spray volume), were used if needed to dissolve the compound.
# (§4) The plants were sprayed inside an enclosed linear spray table with the nozzle set at 30.5 cm (12 inches) above the foliage.
# (§5) Treated plants were then returned to a greenhouse and watered daily without wetting the foliage.
# (§6) The degree of weed control was evaluated 17-21 days after application and recorded as percentage of control as compared to the growth of the same species in an untreated control flat of the same. Percent control is the total injury to the plants due to all factors including: inhibited emergence, stunting, malformation, chlorosis and other types of plant injury. The control ratings range from 0 to 100 percent, where 0% represents no effect with growth equal to the untreated control and where 100% represents complete kill.
# [2] = tested on: farnesyl pyrophosphate synthase in daffodil chromoplasts; assay: inhibition of farnesyl pyrophosphate synthase in daffodil chromoplasts (14C-isopentenyl pyrophosphate incorporation); format: biochemical, Narcissus pseudonarcissus
# Method: The IC50 value may be determined as follows. Daffodil chromoplasts are diluted to a volume of 500 microliters in a buffer containing 0.5M sucrose, 3 mM MgCl2, 1 mM ethylenediaminetetraacetic acid, 20 mM N-tris[hydroxymethyl]methyl-2-aminoethanesulfonic acid, […] N-[2-hydroxyethyl]-piperazine-N'-[2-ethanesulfonic acid], 5 mM L-cysteine, 10 mM sodium fluoride, and 0.1% bovine serum albumin at pH 7.7. The inhibitor to be tested may be dissolved in water other suitable solvent and then added to the reaction mixture. The assay is started by the addition of ^14 C-labeled isopentenyl pyrophosphate (52 Ci/mol) to give a final concentration in the assay of about 3 micromolar. The mixture is incubated at 30° C. with gentle agitation for a period of about 30 min. The reaction may be stopped by the addition of 0.5 mL of saturated NaCl and 2 mL of n-butanol saturated with water. After thorough mixing, the turbid suspensions are centrifuged briefly to separate the layers, and 1 mL of the bright yellow upper butanol layer is added to 10 mL of a suitable scintillation fluid which gives a single phase. The butanol soluble radioactivity is then measured in a scintillation counter.
# In addition, the problem of variable quenching differences among different experiments can be essentially eliminated by determining the incorporation of radioactivity relative to controls. Each set of experiments requires two control tubes identical to the test samples except that they contain no inhibitor. One of these is quenched immediately (TO sample) and one is quenched at the end of the normal incubation period (T100 sample).
# For each concentration of inhibitor examined the % residual activity is determined from the formula [formula]
# Tightly closed daffodil flowers (Narcissus pseudonarcissus) were allowed to open at room temperature. […] Coronae were placed in twice their weight of isolation buffer consisting of 67 mM potassium phosphate, 0.74M sucrose, 5 mM MgCl2, and 0.2% polyvinyl-pyrrolidone at pH 7.6 and were disrupted by 30 seconds of homogenization at high speed in a Waring-type blender. The mixture was filtered through several layers of cheesecloth and 2 layers of 100 micron nylon mesh, and the resulting filtrate was centrifuged at 1000×g for 10 minutes. The pellet was discarded and supernatant was centrifuged at 22,000×g for 20 minutes. […] This solution was centrifuged at 22,000×g for 20 minutes to give orange pellets which were suspended in a buffer of 100 mM tris(hydroxymethyl)aminomethane at pH 7.6 containing 5mM MgCl2 and 2 mM dithiothreitol (1 ml per 10 coronae). This solution was frozen in liquid nitrogen and then stored at -80° C.
# Thawed daffodil chromoplasts (100-150 microliters) were diluted to a final volume of 500 microliters in a buffer containing 0.5M sucrose, 3 mM MgCl2, 1 mM ethylenediaminetetraacetic acid, 10 mM N-[2-hydroxyethyl]piperazine-N^1 -[2-ethanesulfonic acid], 5 mM L-cysteine, 10 mM sodium fluoride, and 0.1% bovine serum albumin at pH 7.7. The inhibitor to be tested was dissolved in water or other suitable solvent and was added to the reaction mixture. The assay was started by the addition of ^14 C-labeled isopentenyl pyrophosphate (52 Ci/mol) to give a final concentration in the assay of about 3 micromolar. The mixture was incubated at 30° C. with gentle agitation for a period of about 30 minutes. The reaction was stopped by the addition of 0.5 mL of saturated NaCl and 2 mL of n-butanol saturated with water. After thorough mixing, the turbid suspensions were centrifuged briefly to separate the layers, and 1 mL of the bright yellow upper butanol layer was added to 10 mL of a suitable scintillation fluid which gave a single phase. The butanol soluble radioactivity was then measured in a scintillation counter. Each set of experiments required two control tubes identical to the test samples except that they contain no inhibitor.
# [3] = tested on: morningglory (Ipomoea spp.) (IPOSS); assay: post-emergent herbicidal test, morningglory; format: in vivo; settings: Ipomoea, post-emergence, post-emergent, 17-21 days after application, read-out: IPOSS percent control; for pest or weed control at 4000 g/ha: 4.0 kg/ha; for pest or weed control at 1000 g/ha: 1.0 kg/ha (*)
# Source text: as §1, §2, §3, §4, §5, §6
# [4] = tested on: green foxtail (Setaria viridis) (SETVI); assay: post-emergent herbicidal test, green foxtail; format: in vivo; settings: post-emergent, 17-21 days after application; for pest or weed control at 4000 g/ha / pest or weed control at 1000 g/ha: Setaria viridis, post-emergence, read-out: SETVI percent control; for pest or weed control at 4000 g/ha: 4.0 kg/ha
# Source text: as §1, §2, §3, §4, §5, §6
# [5] = tested on: wild oat (Avena fatua) (AVEFA); assay: post-emergent herbicidal test, wild oat; format: in vivo; settings: Avena fatua, post-emergence, post-emergent, 17-21 days after application, read-out: AVEFA percent control; for pest or weed control at 4000 g/ha: 4.0 kg/ha; for pest or weed control at 1000 g/ha: 1.0 kg/ha (*)
# Source text: as §1, §2, §3, §4, §5, §6
# [6] = tested on: velvetleaf (Abutilon theophrasti) (ABUTH); assay: post-emergent herbicidal test, velvetleaf; format: in vivo; settings: post-emergent, 17-21 days after application; for pest or weed control at 4000 g/ha / pest or weed control at 1000 g/ha: Abutilon theophrasti, post-emergence, read-out: ABUTH percent control; for pest or weed control at 4000 g/ha: 4.0 kg/ha
# Source text: as §1, §2, §3, §4, §5, §6
# [7] = tested on: yellow nutsedge (Cyperus esculentus) (CYPES); assay: post-emergent herbicidal test, yellow nutsedge; format: in vivo; settings: post-emergent, 17-21 days after application; for pest or weed control at 4000 g/ha / pest or weed control at 1000 g/ha: Cyperus, post-emergence, read-out: CYPES percent control; for pest or weed control at 4000 g/ha: 4.0 kg/ha
# Source text: as §1, §2, §3, §4, §5, §6
# [8] = tested on: wild mustard (Brassica kaber), also known as Sinapis arvensis (SINAR); assay: post-emergent herbicidal test, wild mustard; format: in vivo; settings: post-emergent, 17-21 days after application; for pest or weed control at 4000 g/ha / pest or weed control at 1000 g/ha: Brassica, post-emergence, read-out: SINAR percent control; for pest or weed control at 4000 g/ha: 4.0 kg/ha
# Source text: as §1, §2, §3, §4, §5, §6
# [9] = Table I, unit inferred, IC50 values in nM, read-out: IC50
# [10] = Table II, unit inferred, IC50 values in nM, read-out: IC50
Structure (SMILES),"IC50 [2, 9] [nM]","IC50 [2, 10] [nM]",pest or weed control at 1000 g/ha [1] [%],pest or weed control at 1000 g/ha [3] [%],pest or weed control at 1000 g/ha ([4]; 1.0 kg/ha (*)) [%],pest or weed control at 1000 g/ha [5] [%],pest or weed control at 1000 g/ha ([6]; 1.0 kg/ha (*)) [%],pest or weed control at 1000 g/ha ([7]; 1.0 kg/ha (*)) [%],pest or weed control at 1000 g/ha ([8]; 1.0 kg/ha (*)) [%],further results
CC1CCC(C)N1CC(P(=O)(O)O)P(=O)(O)O (centres unmarked) [Compound 11],650,610,,,,,,,,pest or weed control at 4000 g/ha [1]: 50%; pest or weed control at 4000 g/ha [3]: 30%; pest or weed control at 4000 g/ha [4]: 50%; pest or weed control at 4000 g/ha [5]: 30%; pest or weed control at 4000 g/ha [6]: 0%; pest or weed control at 4000 g/ha [7]: 0%; pest or weed control at 4000 g/ha [8]: 95%
CCCN(CCC(C)C)CC(P(=O)(O)O)P(=O)(O)O [Compound 61],1000,1000,100,30,90,100,70,10,90,
CCCN(CCC(=O)O)CC(P(=O)(O)O)P(=O)(O)O [Compound 54],479,479,0,5,10,0,0,0,10,
O=P(O)(O)C(CN1CCCCC1)P(=O)(O)O [Compound 1],32,32,,,,,,,,pest or weed control at 4000 g/ha [1]: 100%; pest or weed control at 4000 g/ha [3]: 100%; pest or weed control at 4000 g/ha [4]: 100%; pest or weed control at 4000 g/ha [5]: 100%; pest or weed control at 4000 g/ha [6]: 70%; pest or weed control at 4000 g/ha [7]: 20%; pest or weed control at 4000 g/ha [8]: 100%
CCCCCCN(CCC)CC(P(=O)(O)O)P(=O)(O)O [Compound 59],135,135,90,20,95,85,30,5,90,
CC(NCC(P(=O)(O)O)P(=O)(O)O)c1ccccc1 (centres unmarked) [Compound 26],1430,1430,80,10,,80,,,,SETVI percent control ([4]; 1.0 kg/ha (*)): 60%; ABUTH percent control ([6]; 1.0 kg/ha (*)): 20%; CYPES percent control ([7]; 1.0 kg/ha (*)): 5%; SINAR percent control ([8]; 1.0 kg/ha (*)): 40%
Cc1cccnc1NCC(P(=O)(O)O)P(=O)(O)O [Compound 31],6600,6600,,,,,,,,pest or weed control at 4000 g/ha [1]: 0%; pest or weed control at 4000 g/ha [3]: 0%; pest or weed control at 4000 g/ha [4]: 0%; pest or weed control at 4000 g/ha [5]: 0%; pest or weed control at 4000 g/ha [6]: 0%; pest or weed control at 4000 g/ha [7]: 0%; pest or weed control at 4000 g/ha [8]: 0%
CCCCN(CCC)CC(P(=O)(O)O)P(=O)(O)O [Compound 52],87,87,100,20,100,100,75,20,100,
C=CCN(C)CC(P(=O)(O)O)P(=O)(O)O [Compound 41],60,60,95,85,95,100,85,60,100,
O=P(O)(O)C(CNC1Cc2ccccc2C1)P(=O)(O)O [Compound 46],440,440,15,0,20,50,5,10,5,
O=P(O)(O)C(Cn1ccnc1)P(=O)(O)O [Compound 64],,,98,100,100,100,75,30,100,
"O=P(O)(O)C(Cc1ccccn1)P(=O)(O)O [2-(2,2-diphosphonic acid)ethylpyridine, reference compound]",,,,,,,,,,"IC50 ([2]; prior-art compounds, daffodil chromoplasts, read-out: IC50 value): 52 nM"
